Data: US7772183B2 (Bristol-Myers Squibb Company, priority 2005, dated 2010)
Like-named read-outs stand apart in the source and are kept apart here.

How the values were obtained:
[1] = biological target: T1, HCV NS3/4A protease complex, BMS strain (UniProt P27958, species not given/STRAIN_BMS); assay: FRET peptide assay to monitor HCV NS3/4A proteolytic activity (BMS strain); format: biochemical, Hepatitis C virus (genotype 1a)
T1 construct: said of H77 and J4L6S; fused on or other part: A three-lysine solubilising tail at the C-terminus of NS4A and a His tag (pET21b, Ni-NTA purification)
Procedure, shortened: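 Recombinant NS3/4A complexes (aa 1027–1711) from H77 (1a) and J4L6S (1b) carried a three-lysine tail, C1711G and C1454S. They were expressed in E. coli BL21(DE3) (0.5 mM IPTG, 22 h, 20 °C), then purified by Ni-NTA and Superdex-S200 to >90% purity. The BMS strain was a genotype 1a clone from patient serum.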

[2] = biological target: T2, human neutrophil elastase (HNE) (Homo sapiens, UniProt P08246); assay: Specificity assay, neutrophil elastase; format: biochemical; conditions: read-out: HLE activity in the specificity assays
T2 construct: purchased Sigma or EMDbiosciences
T2 sequence (P08246 30-267): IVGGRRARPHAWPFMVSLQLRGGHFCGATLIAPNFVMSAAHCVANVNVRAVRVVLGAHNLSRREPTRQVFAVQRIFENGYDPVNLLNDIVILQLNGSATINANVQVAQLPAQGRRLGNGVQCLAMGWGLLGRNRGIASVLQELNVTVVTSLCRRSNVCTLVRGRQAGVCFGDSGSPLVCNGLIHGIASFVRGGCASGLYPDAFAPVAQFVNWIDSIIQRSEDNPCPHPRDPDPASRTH
Protocol: The specificities of compounds of the present disclosure were determined against a variety of serine proteases: human neutrophil elastase (HNE), porcine pancreatic elastase (PPE) and human pancreatic chymotrypsin and one cysteine protease: human liver cathepsin B. In all cases, a 96-well plate format protocol using colorimetric p-nitroaniline (pNA) substrate or fluorometric Amino-Methyl-Coumarin (AMC) substrate, specific for each enzyme was used as described previously (PCT Patent Application No. WO 00/09543) with some modifications. All enzymes were purchased from Sigma or EMDbiosciences while the substrates were from Bachem.
Each pNA assay included a 2 h enzyme-inhibitor pre-incubation at room temperature followed by addition of substrate and hydrolysis to ˜15% conversion as measured on a Spectramax Pro microplate reader. The cathepsin B assay was initiated by adding substrate to a 10 min enzyme-inhibitor pre-incubation at room temperature, and the assay plate measured immediately using the Cytofluor Series 4000. Compound concentrations varied from 100 to 0.4 μM depending on their potency.
The final conditions for each assay were as follows: […]
The percentage of inhibition was calculated using the formula: [1−((UVinh−UVblank)/(UVctl−UVblank))]×100 […]

T1 sequence (P27958 1027-1657, change not shown, one chain of several): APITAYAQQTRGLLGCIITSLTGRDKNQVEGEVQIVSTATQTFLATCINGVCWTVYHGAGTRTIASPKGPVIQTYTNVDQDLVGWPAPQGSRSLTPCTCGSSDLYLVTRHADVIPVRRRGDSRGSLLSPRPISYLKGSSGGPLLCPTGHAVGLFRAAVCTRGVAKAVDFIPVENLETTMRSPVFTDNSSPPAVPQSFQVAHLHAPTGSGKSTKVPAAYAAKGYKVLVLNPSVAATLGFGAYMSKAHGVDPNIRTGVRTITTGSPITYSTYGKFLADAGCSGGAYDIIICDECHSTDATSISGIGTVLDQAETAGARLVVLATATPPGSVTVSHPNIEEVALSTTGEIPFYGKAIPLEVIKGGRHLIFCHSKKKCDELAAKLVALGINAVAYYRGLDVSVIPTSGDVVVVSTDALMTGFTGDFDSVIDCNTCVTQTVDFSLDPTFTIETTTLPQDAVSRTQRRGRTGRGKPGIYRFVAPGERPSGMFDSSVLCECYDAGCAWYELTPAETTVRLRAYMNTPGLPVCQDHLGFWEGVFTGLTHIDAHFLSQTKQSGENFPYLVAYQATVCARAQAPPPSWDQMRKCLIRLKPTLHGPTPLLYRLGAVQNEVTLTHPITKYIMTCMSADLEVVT

Question: With `CC(C)(C)OC(=O)N[C@H]1CCCCC/C=C\[C@@H]2C[C@@]2(C(=O)NS(=O)(=O)C2CC2)NC(=O)[C@@H]2C[C@@H](OC(=O)c3ccc(C#N)cc3)CN2C1=O` [Compound 26, 18-(4-cyanobenzoyloxy)-14-tert-butoxycarbonylamino-4-cyclopropylsulfonylaminocarbonyl-2,15-dioxo-3,16-diazatricyclo-[14.3.0.0^4,6]-nonadec-7-ene] as the compound, how does the IC50 ([1]; BMS strain, read-out: IC50 against the NS3/4A BMS strain in the enzyme assay) read?
Answer: 0.00078 µM

Question: What about the IC50 ([1]; NS3/4A BMS strain, read-out: IC50 Range) of the same compound?
Answer: < 0.1 µM

Question: And the IC50 [2]?
Answer: > 100 µM

Question: What about the melting point of the same compound?
Answer: 164 to 166 °C
